Measurements from US20060084599A1, “Compositions, methods and kits relating to notch signaling” (Maine Medical Center, priority 2003, published 2006).

How the values were obtained:
[1] = system: NIH 3T3 stable transfectants; assay: FGF1 release in stable NIH 3T3 cell transfectants (Example 1); format: cell-based, murine; settings: sJ1 stable transfectants transduced with FGF1 adenovirus, 37° C.
Procedure: Adenovirus vector expressing lacZ, FGF1, caN1, dnN1, caN2 or dnN2 was prepared as described (Hardy et al., 1997, J. Virol. 71: 1842-1849) at a titer of approximately 10^12 viral particles/ml. For adenoviral transduction, NIH 3T3 stable transfectants were incubated in serum-free medium with approximately […] viral particles/cell in the presence of poly-D-lysine hydrobromide (Sigma) (5×10^3 molecules/viral particle) for two hours at 37° C., after which the adenovirus-containing media was removed and replaced with serum-containing medium (10% BCS) for an additional 24 hours. The transduced cells were harvested by trypsin digestion and seeded for the heat shock experiments as previously described (Jackson et al., 1992, Proc. Natl. Acad. Sci. USA 89: 10691-10695). After heat shock, the conditioned media from cells exposed to either 37° C. (normal conditions) or 42° C. (heat shock conditions) were treated with 0.1% DTT for 2 hours at 37° C., adsorbed to heparin-Sepharose and eluted from the column with 1.5 M NaCl. The eluants were resolved by 15% (w/v) SDS-PAGE and evaluated by FGF1 immunoblot analysis as described (Jackson et al., 1992, Proc. Natl. Acad. Sci. USA 89: 10691-10695).

human Jagged1 [2] = biological target: T1, human Jagged1 (Homo sapiens, UniProt P78504, A1171G); assay: Thrombin cleavage of in vitro translated Jagged1 and Edman microsequencing; format: biochemical; settings: α-thrombin, 15 minutes at 37° C.
T1 construct: the full-length human Jagged1 transcript was in vitro translated; made in house; host or cells: cell-free: T7-coupled reticulocyte lysate system (Promega)
T1 sequence (P78504 34-1218 A1171G): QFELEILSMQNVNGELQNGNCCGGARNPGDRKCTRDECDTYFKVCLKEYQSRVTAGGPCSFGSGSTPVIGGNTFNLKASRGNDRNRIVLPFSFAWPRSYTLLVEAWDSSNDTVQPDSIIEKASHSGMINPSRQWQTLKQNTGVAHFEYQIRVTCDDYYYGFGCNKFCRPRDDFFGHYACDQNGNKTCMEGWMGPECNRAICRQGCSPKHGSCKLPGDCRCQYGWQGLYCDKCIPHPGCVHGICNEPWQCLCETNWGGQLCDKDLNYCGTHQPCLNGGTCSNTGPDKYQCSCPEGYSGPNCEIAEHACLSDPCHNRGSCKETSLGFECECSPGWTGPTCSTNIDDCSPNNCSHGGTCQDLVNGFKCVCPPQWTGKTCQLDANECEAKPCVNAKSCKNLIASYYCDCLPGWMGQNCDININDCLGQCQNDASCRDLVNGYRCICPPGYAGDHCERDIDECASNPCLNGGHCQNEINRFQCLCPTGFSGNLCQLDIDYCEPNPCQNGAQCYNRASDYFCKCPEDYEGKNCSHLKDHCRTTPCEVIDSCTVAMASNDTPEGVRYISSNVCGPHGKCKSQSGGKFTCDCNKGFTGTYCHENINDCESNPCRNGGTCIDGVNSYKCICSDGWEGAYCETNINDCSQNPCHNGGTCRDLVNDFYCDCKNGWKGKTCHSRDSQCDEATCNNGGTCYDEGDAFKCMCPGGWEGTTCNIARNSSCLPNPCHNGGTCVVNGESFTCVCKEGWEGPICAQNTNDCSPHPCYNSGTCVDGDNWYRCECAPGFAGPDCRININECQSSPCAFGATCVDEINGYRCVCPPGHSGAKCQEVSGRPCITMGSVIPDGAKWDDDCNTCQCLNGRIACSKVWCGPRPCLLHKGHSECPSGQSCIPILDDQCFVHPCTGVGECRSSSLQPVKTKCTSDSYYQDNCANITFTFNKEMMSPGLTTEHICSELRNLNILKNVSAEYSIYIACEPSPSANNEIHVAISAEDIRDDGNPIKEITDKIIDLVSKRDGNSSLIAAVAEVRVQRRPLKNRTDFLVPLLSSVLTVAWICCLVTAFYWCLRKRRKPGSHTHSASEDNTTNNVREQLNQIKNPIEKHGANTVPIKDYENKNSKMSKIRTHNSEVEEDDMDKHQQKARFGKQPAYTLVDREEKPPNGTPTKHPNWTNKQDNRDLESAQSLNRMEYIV
Procedure: (§1) A plasmid containing human Jagged1 (Zinrin et al., 1996, J. Biol. Chem. 271:32499-32502) was in vitro transcribed and in vitro translated in the presence of a (^35S)-Met/Cys protein-labeling mixture (Amersham) using the T7-coupled reticulocyte lysate system according to the manufacturer's instructions (Promega) in a total volume of 50 μl. After 60 minutes incubation at 30° C., 0.05% DTT was added, half of the reaction mixture incubated with 10 μg α-thrombin for 15 minutes at 37° C., and the reaction stopped by boiling in the presence of SDS-PAGE sample buffer. The samples were resolved by 12% SDS-PAGE, transferred to a nitrocellulose membrane, and analyzed by autoradiography. The bands corresponding to the thrombin cleavage products were excised and subjected to automated Edman microsequencing (Applied Bio Sciences). The products of each cycle were collected prior to resolution by HPLC, added to liquid scintillation fluid (Beckman) and the (^35S) samples quantitated by liquid scintillation spectroscopy (Beckman).

human Jagged1 [3] = biological target: T2, human Jagged1 (Homo sapiens, UniProt P78504); assay: as above; format: biochemical; settings: Edman chemistry of 95 kDa fragment
T2 construct: the full-length human Jagged1 transcript was in vitro translated; made in house; host or cells: cell-free: T7-coupled reticulocyte lysate system (Promega)
T2 sequence (P78504 34-1218 A1171G): as above
Procedure: as §1

Delta1 = biological target: T3, Delta1 (Homo sapiens, UniProt O00548); assay: Thrombin treatment of in vitro translated Delta1; format: biochemical
T3 construct: made in house; host or cells: cell-free in vitro translation (system not described for Delta1)
T3 sequence (O00548 18-723): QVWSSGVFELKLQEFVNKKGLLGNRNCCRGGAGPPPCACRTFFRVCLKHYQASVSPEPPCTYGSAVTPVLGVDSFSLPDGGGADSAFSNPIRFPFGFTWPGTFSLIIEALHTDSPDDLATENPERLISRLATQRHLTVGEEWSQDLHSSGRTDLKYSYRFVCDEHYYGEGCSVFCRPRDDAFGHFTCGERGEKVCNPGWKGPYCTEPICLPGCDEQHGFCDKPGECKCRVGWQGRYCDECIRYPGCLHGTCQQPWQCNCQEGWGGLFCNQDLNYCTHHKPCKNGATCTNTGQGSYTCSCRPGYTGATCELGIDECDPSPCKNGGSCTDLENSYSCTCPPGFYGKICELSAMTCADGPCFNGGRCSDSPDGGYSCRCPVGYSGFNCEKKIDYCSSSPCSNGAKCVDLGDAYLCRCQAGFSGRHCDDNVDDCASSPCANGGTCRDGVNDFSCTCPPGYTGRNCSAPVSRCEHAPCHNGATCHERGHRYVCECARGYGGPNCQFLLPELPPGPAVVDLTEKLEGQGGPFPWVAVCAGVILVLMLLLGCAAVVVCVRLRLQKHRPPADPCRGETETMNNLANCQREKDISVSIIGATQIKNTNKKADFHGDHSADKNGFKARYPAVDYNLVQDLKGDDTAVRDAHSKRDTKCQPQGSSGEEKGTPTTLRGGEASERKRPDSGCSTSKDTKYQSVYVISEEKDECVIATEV

Substance: sJ1: Soluble Jagged1, amino acid residues about 1 to 1067 (SEQ ID NO:3) of full-length human Jagged1
- FGF1 release under normal growth conditions [1]: significant release of FGF1 at 37 °C

Substance: thrombin
- cleavage of 134 kDa Jagged1 translation product (human Jagged1 [2]): cleavage of the full-length Jagged1 protein into 39 kDa and 95 kDa fragments
- Jagged1 cleavage site (human Jagged1 [3]): between residues R348 and G349
- proteolytic modification of Delta1 translation product (Delta1): unable to proteolytically modify the in vitro translation product of the Delta1 transcript
